Activity calls are given as the source filed them. The calls are words filed in the database; no cut-off is given here.
Experiments:
[1] = biological target: T1, Protein cereblon/Androgen receptor (Homo sapiens, UniProt P10275+Q96SW2); assay: PROTAC activity at CRBN/AR in human VCaP cells assessed as induction of AR degradation incubated for 24 hrs by Western blot analysis; assay type: cell-based
[2] = Selectivity ratio of IC50 for antiproliferative activity against AR-independent human DU-145 cells assessed as cell growth inhibition to IC50 for antiproliferative activity against AR-dependent human VCaP cells assessed as cell growth inhibition; assay type: functional
[3] = biological target: T2, Protein cereblon/Eukaryotic peptide chain release factor GTP-binding subunit ERF3A (Homo sapiens, UniProt Q96SW2+P15170); assay: Molecular glue activity at CRBN/GSPT1 in human 22Rv1 cells assessed as induction of GSPT1 degradation at 0.1 uM incubated for 24 hrs by Western blot analysis relative to control; assay type: cell-based
Target sequence in this assay (P15170 whole entry, looked up): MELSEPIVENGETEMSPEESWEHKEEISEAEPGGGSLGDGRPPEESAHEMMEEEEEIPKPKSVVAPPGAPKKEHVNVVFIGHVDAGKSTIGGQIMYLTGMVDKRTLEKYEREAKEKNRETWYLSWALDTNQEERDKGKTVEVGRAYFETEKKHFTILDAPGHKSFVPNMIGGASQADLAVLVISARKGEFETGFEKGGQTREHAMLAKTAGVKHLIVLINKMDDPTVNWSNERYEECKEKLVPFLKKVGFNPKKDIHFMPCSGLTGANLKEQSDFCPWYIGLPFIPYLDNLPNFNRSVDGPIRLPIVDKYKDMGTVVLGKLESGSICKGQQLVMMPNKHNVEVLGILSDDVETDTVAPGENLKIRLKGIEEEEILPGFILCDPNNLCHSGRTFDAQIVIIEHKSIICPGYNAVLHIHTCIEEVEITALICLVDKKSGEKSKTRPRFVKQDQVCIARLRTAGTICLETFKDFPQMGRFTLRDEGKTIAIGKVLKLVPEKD
Target sequence in this assay (Q96SW2 whole entry, looked up): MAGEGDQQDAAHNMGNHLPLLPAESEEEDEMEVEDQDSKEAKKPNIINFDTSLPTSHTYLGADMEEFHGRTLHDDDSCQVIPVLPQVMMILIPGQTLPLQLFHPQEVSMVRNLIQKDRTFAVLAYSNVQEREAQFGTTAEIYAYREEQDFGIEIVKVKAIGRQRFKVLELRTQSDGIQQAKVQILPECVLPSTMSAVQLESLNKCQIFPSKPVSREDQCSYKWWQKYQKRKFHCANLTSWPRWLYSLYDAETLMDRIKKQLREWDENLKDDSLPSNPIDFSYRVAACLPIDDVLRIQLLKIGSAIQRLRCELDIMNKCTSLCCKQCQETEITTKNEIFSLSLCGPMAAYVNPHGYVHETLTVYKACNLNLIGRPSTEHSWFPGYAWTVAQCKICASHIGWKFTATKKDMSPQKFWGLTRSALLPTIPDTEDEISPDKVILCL

[4] = test system: 22Rv1; assay: Induction of GSPT1 degradation in human 22Rv1 cells transfected with CRBN siRNA at 30 nM incubated for 24 hrs by Western blot analysis; assay type: cell-based
[5] = biological target: T2, Protein cereblon/Eukaryotic peptide chain release factor GTP-binding subunit ERF3A; assay: Molecular glue activity at CRBN/GSPT1 in human VCaP cells assessed as induction of GSPT1 degradation at 20 nM by Western blot analysis; assay type: cell-based; details: time 1-36 hrs
Target sequence in this assay (P15170 whole entry, looked up): as the sequence (P15170 whole entry, looked up) above
Target sequence in this assay (Q96SW2 whole entry, looked up): as the sequence (Q96SW2 whole entry, looked up) above

[6] = test system: VCaP; assay: Antiproliferative activity against AR-dependent human VCaP cells assessed as cell growth inhibition incubated for 72 hrs by Celltiter-lumi luminescent cell viability assay; assay type: functional, cell-based
[7] = biological target: T1, Protein cereblon/Androgen receptor; assay: PROTAC activity at CRBN/AR in human 22Rv1 cells assessed as increase in androgen receptor polyubiquitination at 30 nM preincubated with compound for 12 hrs followed by MG132 addition and measured after 12 hrs by immunoprecipitation based Western blot analysis; assay type: cell-based; details: time 24.0 hrs
Target sequence in this assay (P10275 whole entry, looked up): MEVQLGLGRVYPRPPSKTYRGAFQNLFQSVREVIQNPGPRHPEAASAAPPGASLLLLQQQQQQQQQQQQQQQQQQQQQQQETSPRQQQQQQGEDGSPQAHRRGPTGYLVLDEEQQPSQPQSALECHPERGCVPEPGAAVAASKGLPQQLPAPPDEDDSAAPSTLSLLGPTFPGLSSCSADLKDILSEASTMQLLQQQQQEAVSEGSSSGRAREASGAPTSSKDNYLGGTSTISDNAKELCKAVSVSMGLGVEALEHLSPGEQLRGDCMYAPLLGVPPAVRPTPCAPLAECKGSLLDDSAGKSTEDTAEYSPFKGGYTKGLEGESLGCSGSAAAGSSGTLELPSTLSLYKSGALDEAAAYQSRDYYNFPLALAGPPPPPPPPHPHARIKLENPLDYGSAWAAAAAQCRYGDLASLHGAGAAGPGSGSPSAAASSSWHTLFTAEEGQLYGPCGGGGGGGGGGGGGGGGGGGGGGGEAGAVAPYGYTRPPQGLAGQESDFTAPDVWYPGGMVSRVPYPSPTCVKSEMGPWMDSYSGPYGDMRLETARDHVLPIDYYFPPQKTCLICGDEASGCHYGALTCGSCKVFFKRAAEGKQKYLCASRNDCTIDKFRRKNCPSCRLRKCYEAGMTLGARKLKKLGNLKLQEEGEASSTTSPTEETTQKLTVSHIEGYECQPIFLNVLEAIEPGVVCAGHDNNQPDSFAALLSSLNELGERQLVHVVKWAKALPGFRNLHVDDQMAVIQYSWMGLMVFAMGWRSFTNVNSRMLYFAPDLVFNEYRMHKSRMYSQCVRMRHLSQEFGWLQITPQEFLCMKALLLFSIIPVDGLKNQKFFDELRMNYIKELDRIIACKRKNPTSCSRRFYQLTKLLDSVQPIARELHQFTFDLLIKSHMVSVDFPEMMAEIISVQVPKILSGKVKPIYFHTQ
Target sequence in this assay (Q96SW2 whole entry, looked up): as the sequence (Q96SW2 whole entry, looked up) above

[8] = biological target: T1, Protein cereblon/Androgen receptor; assay: PROTAC activity at CRBN/AR in human 22Rv1 cells assessed as induction of AR degradation at 20 nM incubated for 24 hrs by Western blot analysis (reference value: 0 %); assay type: cell-based
Target sequence in this assay (P10275 whole entry, looked up): as the sequence (P10275 whole entry, looked up) above
Target sequence in this assay (Q96SW2 whole entry, looked up): as the sequence (Q96SW2 whole entry, looked up) above

[9] = Antiproliferative activity against human Enzalutamide-resistant VCaP cells assessed as cell growth inhibition incubated for 72 hrs by Celltiter-lumi luminescent cell viability assay; assay type: functional, cell-based
[10] = biological target: T1, Protein cereblon/Androgen receptor; assay: PROTAC activity at CRBN/AR in human 22Rv1 cells assessed as decrease in FKBP5 mRNA level at 1 to 3 nM incubated for 24 hrs by qRT-PCR analysis; assay type: cell-based; details: dose 1-3 nM
Target sequence in this assay (P10275 whole entry, looked up): as the sequence (P10275 whole entry, looked up) above
Target sequence in this assay (Q96SW2 whole entry, looked up): as the sequence (Q96SW2 whole entry, looked up) above

[11] = biological target: T1, Protein cereblon/Androgen receptor; assay: PROTAC activity at CRBN/AR in human LNCaP cells assessed as induction of AR degradation incubated for 24 hrs by Western blot analysis; assay type: cell-based
[12] = test system: CWR22R; assay: Effect on androgen receptor splice variant 7 mRNA expression in human 22Rv1 cells at 1 to 10 nM incubated for 24 hrs by RT-PCR analysis; assay type: functional, cell-based; details: dose 1-10 nM
[13] = test system: Protein cereblon/Androgen receptor (Homo sapiens), P10275+Q96SW2 [UNDEFINED MUTATION]; assay: PROTAC activity at CRBN/Androgen receptor splice variant 7 in human VCaP cells assessed as induction of AR-V7 degradation at 20 nM by Western blot analysis; assay type: cell-based; details: time 1-36 hrs
Protein cereblon/Androgen receptor (Homo sapiens), P10275+Q96SW2 [UNDEFINED MUTATION], sequence (P10275 whole entry, looked up, stated change not applied, canonical isoform): as the sequence (P10275 whole entry, looked up) above
Protein cereblon/Androgen receptor (Homo sapiens), P10275+Q96SW2 [UNDEFINED MUTATION], sequence (Q96SW2 whole entry, looked up, stated change not applied, canonical isoform): as the sequence (Q96SW2 whole entry, looked up) above

[14] = biological target: T2, Protein cereblon/Eukaryotic peptide chain release factor GTP-binding subunit ERF3A; assay: Molecular glue activity at CRBN/GSPT1 in human LNCaP cells assessed as induction of GSPT1 degradation by measuring maximal efficacy incubated for 24 hrs by Western blot analysis relative to control; assay type: cell-based
Target sequence in this assay (P15170 whole entry, looked up): as the sequence (P15170 whole entry, looked up) above
Target sequence in this assay (Q96SW2 whole entry, looked up): as the sequence (Q96SW2 whole entry, looked up) above

[15] = test system: Protein cereblon/Androgen receptor (Homo sapiens), P10275+Q96SW2 [UNDEFINED MUTATION]; assay: PROTAC activity at CRBN/Androgen receptor splice variant 7 in human 22Rv1 cells assessed as induction of AR-V7 degradation at 20 nM incubated for 6 hrs by Western blot analysis (reference value: 0%); assay type: cell-based
[16] = test system: LNCaP; assay: Antitumor activity against human LNCaP cells xenografted in NOD SCID male mouse model assessed as tumor growth inhibition at 20 mg/kg, po administered daily for 26 days relative to control; assay type: functional; details: 624 h, time 26 day, read-out: TGI
[17] = test system: Protein cereblon/Androgen receptor (Homo sapiens), P10275+Q96SW2 [UNDEFINED MUTATION]; assay: PROTAC activity at CRBN/Androgen receptor splice variant 7 in human VCaP cells assessed as induction of AR-V7 degradation at 0.1 uM incubated for 24 hrs by Western blot analysis relative to control; assay type: cell-based
[18] = test system: Mus musculus; assay: In vivo inhibition of AR transcriptional activity in male NOD SCID mouse model xenografted with human LNCaP cells assessed as reduction in PSA level in tumor at 20 mg/kg, po administered daily for 26 days by ELISA; assay type: functional, organism-based; details: time 26.0 day
[19] = test system: Protein cereblon/Androgen receptor (Homo sapiens), P10275+Q96SW2 [UNDEFINED MUTATION]; assay: PROTAC activity at CRBN/Androgen receptor splice variant 7 in human VCaP cells assessed as induction of AR-V7 degradation at 0.01 uM incubated for 24 hrs by Western blot analysis relative to control; assay type: cell-based
[20] = biological target: T1, Protein cereblon/Androgen receptor; assay: PROTAC activity at CRBN/AR in human VCaP cells assessed as induction of AR degradation at 50 nM preincubated with MG132 followed by compound addition and measured after 12 hrs by Western blot analysis; assay type: cell-based
Target sequence in this assay (P10275 whole entry, looked up): as the sequence (P10275 whole entry, looked up) above
Target sequence in this assay (Q96SW2 whole entry, looked up): as the sequence (Q96SW2 whole entry, looked up) above

[21] = biological target: T1, Protein cereblon/Androgen receptor; assay: PROTAC activity at CRBN/AR in human LNCaP cells assessed as decrease in FKBP5 mRNA level at 10 to 100 nM incubated for 24 hrs by qRT-PCR analysis; assay type: cell-based; details: dose 10-100 nM
Target sequence in this assay (P10275 whole entry, looked up): as the sequence (P10275 whole entry, looked up) above
Target sequence in this assay (Q96SW2 whole entry, looked up): as the sequence (Q96SW2 whole entry, looked up) above

[22] = Selectivity ratio of IC50 for antiproliferative activity against AR-independent human DU-145 cells assessed as cell growth inhibition to IC50 for antiproliferative activity against AR-dependent human 22Rv1 cells assessed as cell growth inhibition; assay type: functional
[23] = test system: CWR22R; assay: Cell cycle arrest in human 22Rv1 cells assessed as accumulation of cells at G1 phase at 10 nM incubated for 24 hrs by flow cytometric analysis (reference value: 49.7 %); assay type: functional
[24] = biological target: T2, Protein cereblon/Eukaryotic peptide chain release factor GTP-binding subunit ERF3A; assay: Molecular glue activity at CRBN/GSPT1 in human LNCaP cells assessed as induction of GSPT1 degradation incubated for 24 hrs by Western blot analysis; assay type: cell-based
[25] = test system: Protein cereblon/Androgen receptor (Homo sapiens), P10275+Q96SW2 [UNDEFINED MUTATION]; assay: PROTAC activity at CRBN/Androgen receptor splice variant 7 in human Enzalutamide-resistant LNCaP cells assessed as induction of AR-V7 degradation at 1 to 300 nM by Western blot analysis; assay type: cell-based; details: dose 1-300 nM
[26] = biological target: T1, Protein cereblon/Androgen receptor; assay: PROTAC activity at CRBN/AR in human LNCaP cells assessed as decrease in PSA mRNA level at 10 to 100 nM incubated for 24 hrs by qRT-PCR analysis; assay type: cell-based; details: dose 10-100 nM
Target sequence in this assay (P10275 whole entry, looked up): as the sequence (P10275 whole entry, looked up) above
Target sequence in this assay (Q96SW2 whole entry, looked up): as the sequence (Q96SW2 whole entry, looked up) above

[27] = biological target: T2, Protein cereblon/Eukaryotic peptide chain release factor GTP-binding subunit ERF3A; assay: Molecular glue activity at CRBN/GSPT1 in human 22Rv1 cells assessed as induction of GSPT1 degradation at 20 nM incubated for 24 hrs by Western blot analysis (reference value: 0 %); assay type: cell-based
Target sequence in this assay (P15170 whole entry, looked up): as the sequence (P15170 whole entry, looked up) above
Target sequence in this assay (Q96SW2 whole entry, looked up): as the sequence (Q96SW2 whole entry, looked up) above

[28] = biological target: T1, Protein cereblon/Androgen receptor; assay: PROTAC activity at CRBN/AR in human LNCaP cells assessed as induction of AR degradation by measuring maximal efficacy incubated for 24 hrs by Western blot analysis relative to control; assay type: cell-based
[29] = biological target: T1, Protein cereblon/Androgen receptor; assay: PROTAC activity at CRBN/AR in human 22Rv1 cells assessed as induction of AR degradation at 20 nM incubated for 12 hrs by Western blot analysis (reference value: 0 %); assay type: cell-based
[30] = biological target: T2, Protein cereblon/Eukaryotic peptide chain release factor GTP-binding subunit ERF3A; assay: Molecular glue activity at CRBN/GSPT1 in human 22Rv1 cells assessed as induction of GSPT1 degradation at 50 uM preincubated with thalidomide followed by compound addition and measured after 12 hrs by Western blot analysis; assay type: cell-based
Target sequence in this assay (P15170 whole entry, looked up): as the sequence (P15170 whole entry, looked up) above
Target sequence in this assay (Q96SW2 whole entry, looked up): as the sequence (Q96SW2 whole entry, looked up) above

Which results are given for `COc1ccc(C(C)(C)c2cc(Cl)c(OCC3CCN(C(=O)CCCCCNc4ccc5c(c4)C(=O)N(C4CCC(=O)NC4=O)C5=O)CC3)c(C#N)c2)cc1` (stereo not drawn)?
Activity [1]: Dose-dependent-effect; DC50 [1]: 2 nM; Ratio IC50 [2]: 588; Activity [3]: 93.4%; Activity [4]: inactive; Activity [5]: Time-dependent-effect; IC50 [6]: 1.5 nM; Activity [7]: Active; Activity [8]: 94.1%; IC50 [9]: 6.99 nM; Activity [10]: Active; Activity [11]: Dose-dependent-effect; DC50 [11]: 15.6 nM; Activity [12]: Minimal_effect; Activity [13]: Time-dependent-effect; Emax [14]: 96.5%; Activity [15]: 20.1%; inhibition in vivo at 20 mg/kg [16]: 60%; Activity [17]: 81.3%; inhibition [18]: Active; Superior Activity Than Enzalutamide Treatment Group Observed; Activity [19]: 85.1%; Activity [20]: inactive; Activity [21]: Active; Ratio IC50 [22]: 802; Activity [23]: 58.9%; Activity [24]: Dose-dependent-effect; DC50 [24]: 0.9 nM; Activity [25]: Active; Activity [26]: Active; Activity [27]: 98.1%; Emax [28]: 78.7%; Activity [29]: 56.1%; Activity [30]: inactive

Source: ChEMBL document CHEMBL6177998, “Rational Design of Dual Degraders by Incorporating Molecular Glue Structural Features into PROTAC Degraders” (J Med Chem, 2025)
